In ChEMBL document CHEMBL1201862, “PubChem BioAssay data set” (2004):
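All cell lines were grown in 96-well plates and treated with compound for 48 hours. GI50: concentration for 50% inhibition of growth.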 Active and inactive are the calls of the source. Cut-off read from the data, not from the text of the source: active = GI50 up to about 1.1 µM and inactive = higher.

What was measured:
Experiment in all cases: inhibition of tumour cell growth, NCI panel, 48 h
UACC-62 = tested on: UACC-62
SK-MEL-5 = tested on: SK-MEL-5
COLO 205 = tested on: COLO 205
LOX IMVI = tested on: LOX IMVI
Malme-3M = tested on: Malme-3M
BT-549 = tested on: BT-549
SK-MEL-28 = tested on: SK-MEL-28
MDA-N = tested on: MDA-N
M14 = tested on: M14
NCI-H226 = tested on: NCI-H226
SNB-19 = tested on: SNB-19
RPMI-8226 = tested on: RPMI-8226
NCI-H23 = tested on: NCI-H23
ACHN = tested on: ACHN
IGROV-1 = tested on: IGROV-1
TK-10 = tested on: TK-10
OVCAR-5 = tested on: OVCAR-5
HCC 2998 = tested on: HCC 2998
SK-OV-3 = tested on: SK-OV-3
T47D = tested on: T47D
MDA-MB-435 = tested on: MDA-MB-435
HOP-62 = tested on: HOP-62
NCI/ADR-RES = tested on: NCI/ADR-RES
HT-29 = tested on: HT-29
SW-620 = tested on: SW-620
UACC-257 = tested on: UACC-257
Hs-578T = tested on: Hs-578T
MOLT-4 = tested on: MOLT-4
HCT-15 = tested on: HCT-15
UO-31 = tested on: UO-31
SK-MEL-2 = tested on: SK-MEL-2
SF-295 = tested on: SF-295
MDA-MB-231 = tested on: MDA-MB-231
A498 = tested on: A498
RXF 393 = tested on: RXF 393
SN12C = tested on: SN12C
DU-145 = tested on: DU-145
SNB-75 = tested on: SNB-75
U-251 = tested on: U-251
K562 = tested on: K562
EKVX = tested on: EKVX
A549 = tested on: A549
NCI-H522 = tested on: NCI-H522
PC-3 = tested on: PC-3
CCRF-CEM = tested on: CCRF-CEM
OVCAR-3 = tested on: OVCAR-3
NCI-H460 = tested on: NCI-H460
SF-268 = tested on: SF-268
HL-60 = tested on: HL-60
CAKI-1 = tested on: CAKI-1
HCT-116 = tested on: HCT-116
MCF7 = tested on: MCF7
KM12 = tested on: KM12
SR = tested on: SR
OVCAR-8 = tested on: OVCAR-8
SF-539 = tested on: SF-539
786-0 = tested on: 786-0
OVCAR-4 = tested on: OVCAR-4
HOP-92 = tested on: HOP-92

Measured: GI50

CNS(=O)(=O)c1ccc2c(c1)/C(=C1/Nc3ccccc3C1=O)C(=O)N2
inactive: UACC-62 > 100 µM | SK-MEL-5 5.2 µM | COLO 205 > 100 µM | LOX IMVI > 100 µM | Malme-3M > 100 µM | BT-549 66.4 µM | SK-MEL-28 > 100 µM | MDA-N > 100 µM | M14 > 100 µM | NCI-H226 > 100 µM | SNB-19 20.9 µM | RPMI-8226 > 100 µM | NCI-H23 9.4 µM | ACHN > 100 µM | IGROV-1 18.7 µM | TK-10 > 100 µM | OVCAR-5 > 100 µM | HCC 2998 > 100 µM | SK-OV-3 92.9 µM | T47D > 100 µM | MDA-MB-435 > 100 µM | HOP-62 > 100 µM | NCI/ADR-RES 67.8 µM | HT-29 > 100 µM | SW-620 > 100 µM | UACC-257 > 100 µM | Hs-578T 3.41 µM | MOLT-4 39.6 µM | UO-31 > 100 µM | SK-MEL-2 > 100 µM | SF-295 > 100 µM | MDA-MB-231 2.63 µM | A498 > 100 µM | RXF 393 > 100 µM | SN12C > 100 µM | DU-145 > 100 µM | SNB-75 > 100 µM | U-251 5.04 µM | K562 > 100 µM | EKVX > 100 µM | A549 > 100 µM | NCI-H522 > 100 µM | PC-3 > 100 µM | CCRF-CEM 30.8 µM | OVCAR-3 > 100 µM | NCI-H460 > 100 µM | SF-268 > 100 µM | HL-60 14.6 µM | CAKI-1 > 100 µM | HCT-116 > 100 µM
49.4 µM: HCT-15

CCN(CC)P(=O)(c1ccc2c(c1)OCCOCCOCCOCCO2)N(CC)CC
> 100 µM: HCT-15
inactive: UACC-62 > 100 µM | SK-MEL-5 > 100 µM | COLO 205 > 100 µM | LOX IMVI > 100 µM | Malme-3M > 100 µM | BT-549 > 100 µM | SK-MEL-28 > 100 µM | MDA-N > 100 µM | M14 > 100 µM | NCI-H226 > 100 µM | SNB-19 > 100 µM | RPMI-8226 > 100 µM | NCI-H23 > 100 µM | MCF7 > 100 µM | ACHN > 100 µM | IGROV-1 > 100 µM | TK-10 > 100 µM | HCC 2998 > 100 µM | SK-OV-3 > 100 µM | T47D > 100 µM | MDA-MB-435 > 100 µM | HOP-62 > 100 µM | SW-620 > 100 µM | Hs-578T > 100 µM | KM12 > 100 µM | MOLT-4 > 100 µM | SR > 100 µM | UO-31 > 100 µM | SF-295 > 100 µM | OVCAR-8 > 100 µM | MDA-MB-231 > 100 µM | A498 > 100 µM | SF-539 > 100 µM | SN12C > 100 µM | DU-145 > 100 µM | SNB-75 > 100 µM | 786-0 > 100 µM | K562 > 100 µM | EKVX > 100 µM | A549 > 100 µM | NCI-H522 > 100 µM | PC-3 > 100 µM | CCRF-CEM > 100 µM | NCI-H460 > 100 µM | SF-268 > 100 µM | HL-60 > 100 µM | CAKI-1 > 100 µM | HCT-116 > 100 µM

CC(CC(N)C(=O)O)C(=O)O (configuration not stated)
inactive: UACC-62 > 100 µM | SK-MEL-5 > 100 µM | LOX IMVI > 100 µM | Malme-3M > 100 µM | BT-549 > 100 µM | SK-MEL-28 > 100 µM | MDA-N > 100 µM | M14 > 100 µM | NCI-H226 > 100 µM | SNB-19 > 100 µM | NCI-H23 > 100 µM | ACHN > 100 µM | IGROV-1 > 100 µM | TK-10 > 100 µM | OVCAR-5 > 100 µM | T47D > 100 µM | MDA-MB-435 > 100 µM | HOP-62 > 100 µM | NCI/ADR-RES > 100 µM | HT-29 > 100 µM | SW-620 > 100 µM | UACC-257 > 100 µM | Hs-578T > 100 µM | KM12 > 100 µM | OVCAR-4 > 100 µM | MOLT-4 > 100 µM | SR > 100 µM | UO-31 > 100 µM | SK-MEL-2 > 100 µM | SF-295 > 100 µM | OVCAR-8 > 100 µM | MDA-MB-231 > 100 µM | A498 > 100 µM | RXF 393 > 100 µM | SN12C > 100 µM | DU-145 > 100 µM | U-251 > 100 µM | 786-0 > 100 µM | K562 > 100 µM | EKVX > 100 µM | A549 > 100 µM | NCI-H522 > 100 µM | PC-3 > 100 µM | CCRF-CEM > 100 µM | HOP-92 > 100 µM | OVCAR-3 > 100 µM | NCI-H460 > 100 µM | SF-268 > 100 µM | HL-60 > 100 µM | CAKI-1 > 100 µM | HCT-116 > 100 µM
> 100 µM: HCT-15
